{
  "source": "patent US11896707B2",
  "about": "“Cosmetic preparations comprising Daphne extracts” (ETH Zurich, priority 2018, dated 2024)",
  "key": {"[1]": {"tested_on": "lymphatic endothelial cell (LEC)", "experiment": "LEC sprouting assay (LEC-covered dextran beads, sprouts per bead)", "format": "cell-based", "protocol": "Stimulation of the lymphatic system: Lymph vessels fulfill an important role in order to maintain the microenvironment surrounding tissue in a constant state by removing unwanted substances present in skin as well as water and protein constantly escaping from blood vessels. […] This action was tested using in vitro test methods. In particular, using a model of sprouting assay developed previously (c.f. ADD Reference SCHULZ MM ET AL., PNAS 2012: PMID 22949700), a library of plant extracts was screened for extracts inducing lymphatic endothelial cell (LEC) sprouting. The key findings were further verified and analysed to characterize the active ingredients. The advantageous effects of the plant extracts were further confirmed by conducting relevant cell proliferation assays, in vitro migration assays and LEC tube formation assays. Given the positive results in all above mentioned assays, one can deduct the positive effect of the plant extracts and the active ingredient thereof, on improving lymphatic vascular function.\nAfter a 24 hour incubation of fluorescently labeled LEC (lymphatic endothelial cell)-covered dextran beads with 10 pg/mL of extracts from a library of 1954 plant-derived samples, sprout formation was assessed by determining the ratio of sprouts per bead. 0.1% DMSO served as a vehicle control. Each extract was tested as 1-plicate and the entire library was screened in two independent replicates.\nSprout formation was assessed by determining the ratio of sprouts per bead. 0.1% DMSO and VEGF-A (20 ng/mL) served as negative and positive controls respectively.\n0.1% DMSO served as a vehicle control and VEGF-A (20 ng/mL) as a positive control."}, "[2]": {"tested_on": "LEC: lymphatic endothelial cell", "experiment": "LEC proliferation in vitro", "format": "cell-based", "protocol": "Selectivity was examined using D. giraldii extracts. D. giraldii extract (CH3OH) promoted endothelial cell proliferation in vitro. […] At least 2 independent experiments with n=5 were performed for each cell type. LEC: lymphatic endothelial cell; HDFB: human dermal fibroblast; HaCaT: immortalized human keratinocyte; BEC: blood endothelial cell.\nDaphnetoxin induced LEC proliferation most potently at 0.03 pM reaching 247±38% of control (0.1% DMSO)."}, "[3]": {"tested_on": "LEC: lymphatic endothelial cell", "experiment": "Toxicity on LEC", "format": "cell-based", "conditions": "FIG. 8", "description": "(§1) Toxicity of the extracts according to example 2 was investigated. […] (LEC: lymphatic endothelial cell; HDFB: human dermal fibroblast; HaCaT: immortalized human keratinocyte; BEC: blood endothelial cell). The results are summarized in FIG. 8 and indicate its usefulness in cosmetic applications."}, "[4]": {"tested_on": "HDFB: human dermal fibroblast", "experiment": "Toxicity on HDFB", "format": "cell-based", "conditions": "FIG. 8", "description": "as §1"}, "[5]": {"tested_on": "HaCaT: immortalized human keratinocyte", "experiment": "Toxicity on HaCaT", "format": "cell-based", "conditions": "FIG. 8", "description": "as §1"}, "[6]": {"tested_on": "BEC: blood endothelial cell", "experiment": "Toxicity on BEC", "format": "cell-based", "conditions": "FIG. 8", "description": "as §1"}, "[7]": {"tested_on": "lymphatic endothelial cell (LEC)", "experiment": "Stability test: LEC sprouting activity after storage", "format": "cell-based", "conditions": "prolonged exposure at 4° C., 25° C. and 50° C. for one week", "description": "The D. giraldii extract and daphnetoxin were subjected to stability tests."}, "[8]": {"experiment": "Stability test by HPLC-UV-MS analysis", "format": "physicochemical", "conditions": "storage in DMSO for one week at 50° C."}},
  "data": [
    {"smiles": "C=C(C)[C@]12C[C@@H](C)[C@@]34OC(c5ccccc5)(O[C@@H]1[C@@H]3[C@@H]1O[C@]1(CO)[C@@H](O)[C@]1(O)C(=O)C(C)=C[C@H]14)O2", "note": "[Daphnetoxin]", "values": [
      {"measurement": "LEC sprouting, sprouts/bead", "setting": "[1]; at 100 nM, FIG. 7A", "result": 4.05, "unit": "sprouts/bead"},
      {"measurement": "sprouting activity of HPLC fractions (HPLC-based activity profiling)", "setting": "[1]; fraction from D. giraldii dichloromethane extract, FIG. 6", "result": "main active compound"},
      {"measurement": "concentration from which LEC sprouting is significantly induced", "setting": "[1]; further experiment, 6 replicates, FIG. 7A", "result": "≥ 10", "unit": "nM"},
      {"measurement": "concentration from which LEC proliferation is significantly induced", "setting": "[2]; 6 replicates, FIG. 7B", "result": "≥ 0.003", "unit": "pM"},
      {"measurement": "LEC proliferation, specificity", "setting": "[2]; Ex. 8, FIG. 8", "result": "promoted lymphatic endothelial cell proliferation specifically"},
      {"measurement": "LEC proliferation", "setting": "[2]; at 0.03 pM (most potent concentration), FIG. 7B", "result": "247±38 % of control (0.1% DMSO)"},
      {"measurement": "cytotoxic effects on LEC", "setting": "[3]", "result": "did not evoke any cytotoxic effects"},
      {"measurement": "cytotoxic effects on HDFB", "setting": "[4]", "result": "did not evoke any cytotoxic effects"},
      {"measurement": "cytotoxic effects on HaCaT", "setting": "[5]", "result": "did not evoke any cytotoxic effects"},
      {"measurement": "cytotoxic effects on BEC", "setting": "[6]", "result": "did not evoke any cytotoxic effects"},
      {"measurement": "activity of LEC sprouting after storage", "setting": "[7]", "result": "consistent activity of LEC sprouting"},
      {"measurement": "stability by HPLC-UV-MS analysis", "setting": "[8]", "result": "confirms stability"}
    ]}
  ]
}
